Results taken from article PMC4449006, “Targeting KRAS Oncogene in Colon Cancer Cells with 7-Carboxylate Indolo[3,2-b]quinoline Tri-Alkylamine Derivatives” (PLoS ONE, 2015).

How the values were obtained:
[1] = test system: KRAS21 G-quadruplex DNA; experiment: FRET melting assay, KRAS G-quadruplex DNA; type: binding; conditions: standard deviation < 0.2°C
Protocol: The capacity of compounds 1a-d, 2a-d and the standard G4 ligand TMPyP4 (Fig 1) to bind and stabilize KRAS [26] and HSP90A [27] G4 DNA structures as well as duplex DNA (T-loop) was evaluated by a Fluorescence Resonance Energy Transfer (FRET) melting assay. […] It was observed that the basicity of side chains correlates positively with thermal G4 stabilization of all DNA sequences up to an optimal pKa ~ 8.0–9.0 (Fig 2). Heterocyclic amines at the end of alkyl side chain (1b and 2b) appear to improve binding to G4s and complex stabilization compared to the di-ethylamine group (1a and 2a), which cannot be explained by differences in basicity between terminal groups. […] However, this was not observed for the isomeric pair 1a / 2a.
All oligonucleotides were purchased from Eurofins MWG Synthesis GmbH, Germany. The labeled oligonucleotides used in the FRET assays had attached the donor fluorophore FAM (6-carboxyfluorescein) and the acceptor fluorophore TAMRA (6-carboxytetramethylrhodamine): KRAS21R (5’-FAM-[…]-TAMRA-3’); HSP90A (5’- [FAM]-[…]-[TAMRA]-3’); T-Loop (5’-FAM-[…]-TAMRA-3’). Each oligonucleotide was initially diluted to a storage solution at 100 μM in nuclease free water (not DEPC-treated), purchased from Ambion Applied Biosystems UK.
The ability of IQ3A and TMPyP4 to stabilize G-quadruplex and duplex DNA sequences was investigated using a Fluorescence Resonance Energy Transfer (FRET) assay. Stock solution of the oligonucleotides sequences at 20 μM and subsequent dilutions were obtained from storage solutions diluting with K-cacodylate buffer pH = 7.4, containing 60 mM K^+ (10 mM potassium cacodylate, 50 mM KCl). The FRET probe sequences were diluted from stock to the correct concentration (0.4 μM) and then annealed by heating to 95°C for 10 min, followed by cooling to RT. Test compounds were prepared as 1 mM in 10% DMSO and 10% 1mM HCl in HPLC-grade water. The rest of the dilutions were performed using FRET buffer. Annealed DNA (50 μL) and compound solution (50 μL) were distributed across 96-well RT-PCR plates (BioRad; MJ Research, Waltham, MA, USA). Relevant controls were also performed to check for interference with the assay. Fluorescence readings were made on a DNA Engine Opticon (MJ Research) with excitation at 450–495 nm and detection at 515–545 nm, taken at intervals of 0.5°C in the range 30–100°C, with a constant temperature being maintained for 30 s prior to each reading to ensure a stable value. Experiments were performed in triplicate. Final analysis of the data was carried out with GraphPad Prism 5.0 software (GraphPad Software, Inc). The advanced curve-fitting function in GraphPad Prism was used for calculation of ΔT m values and associated standard deviations.

[2] = test system: HCT116 cells; experiment: Hoechst staining and Guava Nexin assay, HCT116; type: cell-based, human; conditions: HCT116, 72 h, IC50 concentrations
Protocol: To further validate the effect of the IQ3A compounds on the induction of apoptosis in HCT116 cells, apoptosis was ascertained by evaluating changes in nuclear morphology by Hoechst staining, and also by the Nexin assay, following 72 h of incubation with IQ3A compounds at the IC50 concentrations. […] The p53 protein plays a central and pivotal role in human cancers, having a potent tumor suppressive activity via pleiotropic mechanisms. Therefore, the steady-state levels of p53 protein were evaluated by immunoblotting, following 72 h of incubation with IQ3A compounds at the IC50 concentrations, to ascertain their involvement on the mechanism of apoptosis elicited by IQ3A. […] In SW620 cells, no significant increase in p53 steady-state expression was detected, possibly due to the mutant status of p53 (Fig 5A, middle panel). […]
Fig 4 Exposure to IQ3A compounds increases apoptosis in HCT116 cells. […] Results are expressed as the mean percentage (%) of early (LR quadrant) and late (UR quadrant) apoptotic cells.
The Nexin Assay distinguishes viable, early and late apoptotic cells based on the externalization of phosphatidylserine to the cell surface, where Annexin V can readily bind them. […]

[3] = test system: KRAS mRNA; experiment: KRAS mRNA steady-state levels by Taqman Real-time RT-PCR; conditions: IC50 concentrations
[4] = test system: HCT116 cells; parameters: method as in PMID 23960016; conditions: HCT116 vs primary rat hepatocytes; cited from earlier work

With `CCN(CC)CCOC(=O)c1ccc2c(c1)c1nc3ccccc3c(OCCN(CC)CC)c1n2CCN(CC)CC` [1a] as the compound, how does the “ΔTm (°C) KRAS21 1 μM” value ([1]; 1 μM compound) read?
Its value is 8 °C.

And the “ΔTm (°C) KRAS21 2 μM” value ([1]; 2 μM compound)?
The value was 12 °C.

What about the induction of apoptosis [2] of the same compound?
The induction of apoptosis was “marked increase in apoptosis compared to vehicle”.

What about the “down-regulation of KRAS transcription (mRNA)” value ([3]; HCT116, 72 h) of the same compound?
Its value is roughly 40%.

And the “down-regulation of KRAS transcription (mRNA)” value ([3]; SW620, 72 h)?
The value was “not significantly so”.

And the “Selective growth inhibition of KRAS mutant HCT116 cells compared to primary rat hepatocytes” value [4]?
Its value is 100 fold.
